In patent US20240409585A1, “MACROCYCLIC IMMUNOMODULATORS” (priority 2021, published 2024):
Bridge positions count the residues as written; N and C are the ends. Square brackets hold non-standard residues; d marks the D form. Peptide text beside a SMILES is read from it. * marks the point of attachment. ξ: configuration not given here. Bip(4'-COOH) = N[C@@H](Cc1ccc(-c2ccc(C(=O)O)cc2)cc1)C(=O)O; Bip(4'-NHAc) = CC(=O)Nc1ccc(-c2ccc(C[C@H](N)C(=O)O)cc2)cc1; Phe(3-OCH2COOH) = N[C@@H](Cc1cccc(OCC(=O)O)c1)C(=O)O; Phe(3-CF3) = N[C@@H](Cc1cccc(C(F)(F)F)c1)C(=O)O; Ala(morpholin-4-yl) = N[C@@H](CN1CCOCC1)C(=O)O; Phe(4-CONH2) = NC(=O)c1ccc(C[C@H](N)C(=O)O)cc1; Phe(4-COOH) = N[C@@H](Cc1ccc(C(=O)O)cc1)C(=O)O; Bip = N[C@@H](Cc1ccc(-c2ccccc2)cc1)C(=O)O; Phe(3-F) = N[C@@H](Cc1cccc(F)c1)C(=O)O; Phe(3-Me) = Cc1cccc(C[C@H](N)C(=O)O)c1; Abu(3S-NH2) = C[C@H](N)[C@H](N)C(=O)O; Val(3-OH) = CC(C)(O)[C@H](N)C(=O)O; hPhe = N[C@@H](CCc1ccccc1)C(=O)O; Cha = N[C@@H](CC1CCCCC1)C(=O)O; NTA = O=C(O)CN(CC(=O)O)CC(=O)*; Thr(3ξ) = CC(O)[C@H](N)C(=O)O; Carboxymethyl = O=C(O)C*; NMeA = CN[C@@H](C)C(=O)O; Orn = NCCC[C@H](N)C(=O)O; Dab = NCC[C@H](N)C(=O)O

Columns and labels:
[1] = target: T1, PE-labeled human PD-L1-Ig binding to Jurkat cell line over-expressing human PD-1 (Jurkat-PD-1) (Homo sapiens, UniProt Q15116); assay: Jurkat-PD-1 Cell Binding High-Content Screening Assay (CBA): Method 1; conditions: Jurkat-PD-1 cells, PE-labeled PD-L1-Ig; μM; read-out: CBA Method 1 μM
T1 construct: expressed in transfected cells; host or cells: Jurkat
T1 sequence (Q15116 25-288): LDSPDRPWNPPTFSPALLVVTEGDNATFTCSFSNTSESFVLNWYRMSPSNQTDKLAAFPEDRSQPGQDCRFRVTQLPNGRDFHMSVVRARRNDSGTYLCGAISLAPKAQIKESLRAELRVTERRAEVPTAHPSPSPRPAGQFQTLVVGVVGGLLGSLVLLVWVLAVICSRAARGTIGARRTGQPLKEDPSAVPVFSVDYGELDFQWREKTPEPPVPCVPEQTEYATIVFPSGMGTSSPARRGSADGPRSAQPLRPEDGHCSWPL

[2] = target: T1, PE-labeled human PD-L1-Ig binding to Jurkat cell line over-expressing human PD-1 (Jurkat-PD-1); assay: Jurkat-PD-1 Cell Binding High-Content Screening Assay (CBA): Method 2 (presence and absence of tween-20); conditions: Jurkat-PD-1 cells, PE-labeled PD-L1-Ig 20 nM; presence or absence of tween-20 not given; head μM; read-out: CBA Method 2 μM
How it was run: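 Compounds incubated with Jurkat cells overexpressing human PD-1 for 2 h at 37° C, tested with and without tween-20 to flag aggregation. PE-labeled human PD-L1-Ig (20 nM final) added in DMEM/10% FCS; binding read by high-content imaging.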

IC50 [1] [µM]	IC50 [2] [µM]	Structure (SMILES)
0.0072	0.0069	Cc1cccc(C[C@@H]2NC(=O)[C@H](CC(=O)O)NC(=O)[C@H](Cc3ccc(OCC(=O)O)cc3)NC(=O)[C@H](C(C)O)NC(=O)CSC[C@@H](C(=O)N[C@@H](CCN)C(N)=O)NC(=O)[C@H](CO)NC(=O)[C@H](C(C)(C)O)NC(=O)[C@H](CC3CCCCC3)NC(=O)[C@H](CCN)NC(=O)[C@@H](CC(C)C)NC(=O)[C@H](C)N(C)C(=O)[C@H](Cc3ccc(C(N)=O)cc3)NC(=O)[C@H](Cc3ccc(-c4ccccc4)cc3)NC(=O)[C@H](Cc3ccc(OCC(=O)O)cc3)NC2=O)c1 (stereo partly drawn) [Example 5067] ({CH2CO}-[Thr(3ξ)]Y(Carboxymethyl)D[Phe(3-Me)]Y(Carboxymethyl)[Bip][Phe(4-CONH2)][NMeA][dL][Dab][Cha][Val(3-OH)]SC[Dab]-NH2; thioether N-14)
0.0322	0.0261	CC(=O)Nc1ccc(-c2ccc(C[C@@H]3NC(=O)[C@H](Cc4cccc(C)c4)NC(=O)[C@H](CC(=O)O)NC(=O)[C@H](Cc4ccc(OCC(=O)O)cc4)NC(=O)[C@H](C(C)O)NC(=O)CSC[C@@H](C(=O)N[C@@H](CCN)C(N)=O)NC(=O)[C@H](CO)NC(=O)[C@H](C(C)(C)O)NC(=O)[C@H](CC4CCCCC4)NC(=O)[C@H](CCN)NC(=O)[C@@H](CC(C)C)NC(=O)[C@H](C)N(C)C(=O)[C@H](Cc4ccc(C(N)=O)cc4)NC(=O)[C@H](Cc4ccc(-c5ccccc5)cc4)NC3=O)cc2)cc1 (stereo partly drawn) [Example 5071] ({CH2CO}-[Thr(3ξ)]Y(Carboxymethyl)D[Phe(3-Me)][Bip(4'-NHAc)][Bip][Phe(4-CONH2)][NMeA][dL][Dab][Cha][Val(3-OH)]SC[Dab]-NH2; thioether N-14)
0.463	0.111	CC(C)C[C@H]1NC(=O)[C@H](C)N(C)C(=O)[C@H](CCC(N)=O)NC(=O)[C@H](Cc2ccc(-c3ccccc3)cc2)NC(=O)[C@H](Cc2ccc(C(=O)O)cc2)NC(=O)[C@H](Cc2cccc(C(F)(F)F)c2)NC(=O)[C@H](CCNC(=O)CN(CC(=O)O)CC(=O)O)NC(=O)[C@H](Cc2ccc(C(=O)O)cc2)NC(=O)[C@H](CN2CCOCC2)NC(=O)CSC[C@@H](C(=O)N[C@@H](CCN)C(N)=O)NC(=O)[C@H](CCCN)NC(=O)[C@H](C(C)C)NC(=O)[C@H](CC2CCCCC2)NC(=O)[C@H](CCN)NC1=O [Example 5076] ({CH2CO}-[Ala(morpholin-4-yl)][Phe(4-COOH)][Dab](NTA)[Phe(3-CF3)][Phe(4-COOH)][Bip]Q[NMeA][dL][Dab][Cha]V[Orn]C[Dab]-NH2; thioether N-14)
0.0081	0.0084	CC(=O)Nc1ccc(-c2ccc(C[C@@H]3NC(=O)[C@H](Cc4cccc(C)c4)NC(=O)[C@H](CC(=O)O)NC(=O)[C@H](Cc4ccc(C(=O)O)cc4)NC(=O)[C@H]([C@H](C)N)NC(=O)CSC[C@@H](C(=O)N[C@@H](CCN)C(N)=O)NC(=O)[C@H](CCCN)NC(=O)[C@H](C(C)C)NC(=O)[C@H](Cc4cccc(F)c4)NC(=O)[C@H](CCN)NC(=O)[C@@H](CC(C)C)NC(=O)[C@H](C)N(C)C(=O)[C@H](CCC(N)=O)NC(=O)[C@H](Cc4ccc(-c5ccccc5)cc4)NC3=O)cc2)cc1 [Example 5052] ({CH2CO}-[Abu(3S-NH2)][Phe(4-COOH)]D[Phe(3-Me)][Bip(4'-NHAc)][Bip]Q[NMeA][dL][Dab][Phe(3-F)]V[Orn]C[Dab]-NH2; thioether N-14)
0.0054	0.0052	Cc1cccc(C[C@@H]2NC(=O)[C@H](CC(=O)O)NC(=O)[C@H](Cc3ccc(C(=O)O)cc3)NC(=O)[C@H](CC(C)C)NC(=O)CSC[C@@H](C(=O)N[C@@H](CCN)C(N)=O)NC(=O)[C@H](CCCN)NC(=O)[C@H](C(C)C)NC(=O)[C@H](CC3CCCCC3)NC(=O)[C@H](CCN)NC(=O)[C@@H](CC(C)C)NC(=O)[C@H](C)N(C)C(=O)[C@H](CCC(N)=O)NC(=O)[C@H](Cc3ccc(-c4ccccc4)cc3)NC(=O)[C@H](Cc3ccc(-c4ccc(C(=O)O)cc4)cc3)NC2=O)c1 [Example 5063] ({CH2CO}-L[Phe(4-COOH)]D[Phe(3-Me)][Bip(4'-COOH)][Bip]Q[NMeA][dL][Dab][Cha]V[Orn]C[Dab]-NH2; thioether N-14)
0.0048	0.0044	CC(=O)Nc1ccc(-c2ccc(C[C@@H]3NC(=O)[C@H](Cc4cccc(C)c4)NC(=O)[C@H](CC(=O)O)NC(=O)[C@H](Cc4ccc(C(=O)O)cc4)NC(=O)[C@H](CN4CCOCC4)NC(=O)CSC[C@@H](C(=O)N[C@@H](CCN)C(N)=O)NC(=O)[C@H](CCCN)NC(=O)[C@H](C(C)C)NC(=O)[C@H](CC4CCCCC4)NC(=O)[C@H](CCN)NC(=O)[C@@H](CC(C)C)NC(=O)[C@H](C)N(C)C(=O)[C@H](CCC(N)=O)NC(=O)[C@H](Cc4ccc(-c5ccccc5)cc4)NC3=O)cc2)cc1 [Example 5048] ({CH2CO}-[Ala(morpholin-4-yl)][Phe(4-COOH)]D[Phe(3-Me)][Bip(4'-NHAc)][Bip]Q[NMeA][dL][Dab][Cha]V[Orn]C[Dab]-NH2; thioether N-14)
0.0987	0.108	CC(C)C[C@@H]1NC(=O)[C@H](Cc2c[nH]c3ccccc23)NC(=O)[C@H](CC(N)=O)NC(=O)[C@H](Cc2cccc(OCC(=O)O)c2)NC(=O)[C@H](Cc2ccccc2)NC(=O)CSC[C@@H](C(=O)NCC(N)=O)NC(=O)[C@H](CO)NC(=O)[C@H](C(C)C)NC(=O)[C@H](CC(C)C)NC(=O)[C@H](CC(N)=O)NC(=O)[C@@H](CC(C)C)NC(=O)[C@H](C)N(C)C(=O)[C@H](C(C)C)NC(=O)[C@H](Cc2ccc(-c3ccccc3)cc2)NC1=O [Example 5032] ({CH2CO}-F[Phe(3-OCH2COOH)]NWL[Bip]V[NMeA][dL]NLVSCG-NH2; thioether N-14)
0.0032	0.0024	CC(C)C[C@H]1NC(=O)[C@H](C)N(C)C(=O)[C@H](CCC(N)=O)NC(=O)[C@H](Cc2ccc(-c3ccccc3)cc2)NC(=O)[C@H](Cc2ccc(-c3ccc(C(=O)O)cc3)cc2)NC(=O)[C@H](Cc2cccc(C(F)(F)F)c2)NC(=O)[C@H](CC(=O)O)NC(=O)[C@H](Cc2ccc(C(=O)O)cc2)NC(=O)[C@H](CN2CCOCC2)NC(=O)CSC[C@@H](C(=O)N[C@@H](CCN)C(N)=O)NC(=O)[C@H](CCCN)NC(=O)[C@H](C(C)C)NC(=O)[C@H](CC2CCCCC2)NC(=O)[C@H](CCN)NC1=O [Example 5058] ({CH2CO}-[Ala(morpholin-4-yl)][Phe(4-COOH)]D[Phe(3-CF3)][Bip(4'-COOH)][Bip]Q[NMeA][dL][Dab][Cha]V[Orn]C[Dab]-NH2; thioether N-14)
0.21	0.31	Cc1cccc(C[C@@H]2NC(=O)[C@H](CC(=O)O)NC(=O)[C@H](Cc3ccc(OCC(=O)O)cc3)NC(=O)[C@H](CN3CCOCC3)NC(=O)CSC[C@@H](C(=O)N[C@@H](CCN)C(N)=O)NC(=O)[C@H](CCCN)NC(=O)[C@H](C(C)C)NC(=O)[C@H](CCc3ccccc3)NC(=O)[C@H](CCN)NC(=O)[C@@H](CC(C)C)NC(=O)[C@H](C)N(C)C(=O)[C@H](CCC(N)=O)NC(=O)[C@H](Cc3ccc(-c4ccccc4)cc3)NC(=O)[C@H](Cc3ccc(C(=O)O)cc3)NC2=O)c1 [Example 5015] ({CH2CO}-[Ala(morpholin-4-yl)]Y(Carboxymethyl)D[Phe(3-Me)][Phe(4-COOH)][Bip]Q[NMeA][dL][Dab][hPhe]V[Orn]C[Dab]-NH2; thioether N-14)
